Columns and labels:
[1] = test system: human retinal endothelial cells (HRECs); assay: Inner blood retinal barrier: HREC monolayer permeability to FITC-dextran; format: cell-based
Text: (§1) The mechanisms of actions involved in the anti-permeability effect of the tested treatments were explored by assessing permeability to fluorescent dextran and proinflammatory cytokines production using their mRNA expression levels by RT-PCR.
Inner Blood Retinal Barrier conditions: primary human retinal endothelial cells (HRECs) were obtained from a vial of cryopreserved cells purchased from Innoprot (Vizcay, Spain). These cells were isolated from human retinal tissue of cadaveric eyes digested with 0.1 mg/mL collagenase type I at 37° C. for 1 hour. Then, endothelial cells were finally selected with CD31 antibody-coated magnetic beads (DynaBeads; Dynal, Oslo, Norway). HRECs were thawed in the laboratory and cultured in endothelial basal medium (EBM) containing, 5.5 mM D-glucose, 5% FBS (Fetal Bovine Serum), 100 U/mL penicillin, 100 μg/mL streptomycin, and ECG (Endothelial Cell Growth Supplement) supplement (Innoprot, Vizcay, Spain). Human fibronectin (MerckMillipore, Madrid, Spain) at 5 μg/mL was used for cell attachment. Cells at passages 2-3 will be used for the experiments. For experimentation, HRECs were grown to confluence and then cell culture media was changed to medium supplemented with 1% FBS for 24 h and then exposed to different treatments.
Conditions treatments: The same conditions specified for the experiment in ARPE-19 cells were used.
Measurement of HREC permeability: Permeability in HREC monolayers were obtained on permeable supports at 12×10^5 cells/well (24 wells, PCF filters, Merk Millipore). Inserts were incubated for 48 hours at 37° C. in 5% CO2-air to form the monolayer. At the end, medium was serum depleted 24 h before to proceed with the treatments. The lower chamber was filled with 600 μL of complete EBM medium and the upper chamber with 100 μL of cell suspension in serum depleted (1%).
To detect changes in the permeability, 100 μg/ml of fluorescent FITC-DEXTRAN (Sigma, Madrid, Spain), was added to the upper side of the insert. Aliquots of 200 μL from the basal compartment was read in a SpectraMax Gemini (Molecular Devices, Sunnyvale, Calif.) at a wavelength of excitation/emission 485/528 nm every 30 min. Finally, the concentration of dextran was determined by extrapolation of the fluorescence reads in a standard curve. Each condition was tested in triplicate.

ARPE-19 cells [2] = assay: Outer blood retinal barrier: ARPE-19 monolayer permeability to FITC-dextran; format: cell-based, human
Text: as §1
(§2) Outer Blood Retinal Barrier conditions: human retinal pigment epithelial cells (RPE) cultures ARPE-19, a spontaneously immortalised human RPE cell line were obtained from American Type Culture Collection (Manassas, Va., USA). ARPE-19 cells and they were cultured in euglycaemic conditions (D-glucose (D-Glc), 5.5 mmol/L) and hyperglycaemic conditions (D-glucose, 25 mmol/L) for 18 days at 37° C. under 5% (vol./vol.) CO2 in medium (DMEM/F12) supplemented with 10% (vol./vol.) FBS (Hyclone; Thermo Fisher Scientific, UT, USA) and 1% (vol./vol.) penicillin/streptomycin (Hyclone; Thermo Fisher Scientific). ARPE-19 cells from passage 20 were used and the medium changed every 3-4 days. For permeability studies, ARPE-19 cells were seeded at 400,000 cells/ml (80,000 RPE cells/well) in 0.33 cm^2 HTS-Transwells (Costar; Corning, N.Y., USA). For real-time PCR, western blot analysis and immunofluorescence cells are seeded at 20,000 cells/ml.
(§3) Experimental conditions and treatments: apart from the euglycemic condition, eighteen different conditions were tested in cells cultured under 25 mmol/L D-glucose:
Condition 2) Cells are treated with diabetic milieu 25 mM D-Glucose+vehicle (days 15, 16 and 17 at one application/day) in order to evaluate their effect in preventing the cell damage provoked by the diabetic milieu.
Condition 9) Cells were treated with 25 mM D-Glucose and bevacizumab (0.2 mg/ml) for 72 h (days 15, 16 and 17 at one application/day) to evaluate their potential cytotoxic effects.
Condition 10)=Diabetic milieu; cells were treated with 25 mM D-Glucose+[…] (10 ng/ml)+TNF-α (25 ng/ml)+VEGF (25 ng/ml), for 48 h (days 16 and 17 at one application/day) in order to provoke the disruption of the monolayer.
Condition 17) Cells are treated with diabetic milieu (25 mM D-Glucose+IL-1β (10 ng/ml)+TNF-α (25 ng/ml)+VEGF (25 ng/ml))+bevacizumab (0.2 mg/mL) (days 15, 16 and 17 at one application/day) in order to evaluate their effect in preventing the cell damage provoked by the diabetic milieu.
Measurement of ARPE-19 permeability: The permeability of RPE cells was determined at 18 days by measuring the apical-to basolateral movements of FITC-dextran (40 kDa) (Sigma, St Louis, […]., USA) following a procedure previously reported by Villarroel et al. Exp Eye Res, 2009, 89, 913-920.

ARPE-19 cells [3] = assay: ROS and cytokine/VEGF mRNA production by ARPE-19 monolayer cells in non-diabetic and diabetic milieu; format: cell-based, human; conditions: ARPE19 monolayer, 0.2 mg/mL; for ROS: ROS % to 25 mM D-Glucose; for IL-1β R.Q. mRNA / IL-6 R.Q. mRNA / IL-18 R.Q. mRNA / TNFα R.Q. mRNA / VEGF R.Q. mRNA: relative change vs 25 mM D-Gluc
Protocol: as §2, §3
• Proinflammatory cytokines were evaluated in ARPE-19 cells by RT-PCR and mRNA for IL-6, TNF-α, IL-1β, IL-18, VEGF, IL-10, FGF were measured using the double delta CT method 2-ΔΔCT with Cts values for the gene of interest and the endogenous human B-actin to obtain ΔCT; mRNA values were expressed as relative change with respect to the condition 25 mM D-Gluc. (ref: Livak K J, Analysis of Relative Gene Expression Data Using Real-Time Quantitative PCR and the 2-ΔΔCT Method, Methods, 2001, 25(4), 402-408, doi 10.1006/meth.2001.1262) • ROS production was evaluated using Cell Biolabs' OxiSelect™ Intracellular ROS Assay (Green Fluorescence) (Bionova, Madrid, Spain). The assay employs the cell-permeable fluorogenic probe 2′, 7′-Dichlorodihydrofluorescin diacetate (DCFH-DA), oxidized to highly fluorescent 2′, 7′-Dichlorodihydrofluorescein (DCF) by cellular ROS. • Endothelin-1, PDGF and VCAM-1 expression was analyzed in HREC monolayers by immunohistochemical analysis and by RT-PCR. • TJ expression (ZO) is analyzed in ARPE-19 and HREC monolayers by immunohistochemical analysis.

[4] = Prodrug stability in human plasma; format: in vitro ADME; conditions: read-out: T1/2 (human plasma)
[5] = Prodrug stability in mouse plasma; format: in vitro ADME
Human neutrophils [6] = assay: Neutrophil adhesion under static conditions; format: cell-based; conditions: fMLP-stimulated adhesion to fibrinogen; method: 40 μM and 80 μM, concentration of the value not stated
Method in brief: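 Donor buffy-coat neutrophils (3×10^6/ml, PBS with Ca/Mg, 10% FCS, pH 7.2) preincubated 30 min at 37° C with 40 μM or 80 μM compound, then stimulated 1 min at 37° C with 1 nM fMLP on fibrinogen-coated glass. Adherent cells fixed and counted by computer; mean ± SD, unpaired t-test.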

FGF-2 = target: T1, FGF-2 (Homo sapiens, UniProt P09038); assay: FGF-2 induced sprouting of HUVEC, spheroid-based cellular angiogenesis assay; format: cell-based; conditions: FGF-2 25 ng/mL preincubated with compound, 24 h
T1 construct: purchased Peprotech 100-18C
Method in brief: (§4)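 Spheroids of 400 HUVEC (passage 3–4), embedded in collagen gel, were stimulated with FGF-1, FGF-2 or VEGF-A (final 25 ng/mL) preincubated 30 min at 37°C with compound (final 1.56–100 μM).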

Human neutrophils [7] = assay: Inhibition of ROS production in human neutrophils (isoluminol chemiluminescence); format: cell-based; conditions: Homo sapiens, Neutrophil, fMLP+TNF-α stimulated PMN
Method in brief: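 Neutrophils from healthy-donor buffy coats (3×10^6/ml in HBSS with Ca/Mg) pre-incubated 30 min at 37° C with compound (0.1–10 μM), primed with TNF-α 20 ng/ml for 10 min, then added to fibrinogen-coated wells. Isoluminol/HRP chemiluminescence recorded every 25 sec for 250 sec after fMLP (1 μM), background-subtracted.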

FGF-1 = target: T2, FGF-1 (Homo sapiens, UniProt P05230); assay: FGF-1 induced sprouting of HUVEC, spheroid-based cellular angiogenesis assay; format: cell-based; conditions: FGF-1 25 ng/mL preincubated with compound, 24 h
T2 construct: purchased Peprotech 100-17A
Method in brief: as §4

VEGF-A = target: T3, VEGF-A (Homo sapiens, UniProt P15692); assay: VEGF-A induced sprouting of HUVEC, spheroid-based cellular angiogenesis assay; format: cell-based; conditions: VEGF-A 25 ng/mL preincubated with compound, 24 h, read-out: VEGF-A1 IC50
T3 construct: purchased ProQinase GmbH
T3 sequence (P15692 27-191 isoform P15692-4): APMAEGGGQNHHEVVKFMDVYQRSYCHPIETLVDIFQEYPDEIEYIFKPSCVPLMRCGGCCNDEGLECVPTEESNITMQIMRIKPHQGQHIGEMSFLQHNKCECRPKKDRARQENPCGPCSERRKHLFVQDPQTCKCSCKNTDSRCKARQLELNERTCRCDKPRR
Method in brief: as §4

VEGFR-2 = target: T4, VEGFR-2 (Homo sapiens, UniProt P35968); assay: VEGF-165 induced phosphorylation of VEGF-Receptor on HUVEC; format: cell-based; conditions: HUVEC preincubated 60 min, VEGF165 25 ng/mL 2 min; read-out: VEGFR-Phosphorylation inhibition IC50
T4 construct: endogenous in cells; host or cells: primary HUVEC

[8] = diabetic milieu (25 mM D-Gluc + VEGF, TNF-α, IL-1β)

T2 sequence (P05230 whole entry): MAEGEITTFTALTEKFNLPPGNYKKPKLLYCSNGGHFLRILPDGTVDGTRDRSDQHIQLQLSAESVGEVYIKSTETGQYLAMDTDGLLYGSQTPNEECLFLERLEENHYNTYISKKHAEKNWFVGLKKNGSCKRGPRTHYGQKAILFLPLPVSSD
T1 sequence (P09038 134-288): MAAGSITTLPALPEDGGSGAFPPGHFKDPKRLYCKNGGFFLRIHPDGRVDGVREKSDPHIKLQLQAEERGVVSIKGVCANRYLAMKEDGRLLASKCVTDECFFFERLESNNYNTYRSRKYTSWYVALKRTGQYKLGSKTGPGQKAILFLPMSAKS
T4 sequence (P35968 20-1356): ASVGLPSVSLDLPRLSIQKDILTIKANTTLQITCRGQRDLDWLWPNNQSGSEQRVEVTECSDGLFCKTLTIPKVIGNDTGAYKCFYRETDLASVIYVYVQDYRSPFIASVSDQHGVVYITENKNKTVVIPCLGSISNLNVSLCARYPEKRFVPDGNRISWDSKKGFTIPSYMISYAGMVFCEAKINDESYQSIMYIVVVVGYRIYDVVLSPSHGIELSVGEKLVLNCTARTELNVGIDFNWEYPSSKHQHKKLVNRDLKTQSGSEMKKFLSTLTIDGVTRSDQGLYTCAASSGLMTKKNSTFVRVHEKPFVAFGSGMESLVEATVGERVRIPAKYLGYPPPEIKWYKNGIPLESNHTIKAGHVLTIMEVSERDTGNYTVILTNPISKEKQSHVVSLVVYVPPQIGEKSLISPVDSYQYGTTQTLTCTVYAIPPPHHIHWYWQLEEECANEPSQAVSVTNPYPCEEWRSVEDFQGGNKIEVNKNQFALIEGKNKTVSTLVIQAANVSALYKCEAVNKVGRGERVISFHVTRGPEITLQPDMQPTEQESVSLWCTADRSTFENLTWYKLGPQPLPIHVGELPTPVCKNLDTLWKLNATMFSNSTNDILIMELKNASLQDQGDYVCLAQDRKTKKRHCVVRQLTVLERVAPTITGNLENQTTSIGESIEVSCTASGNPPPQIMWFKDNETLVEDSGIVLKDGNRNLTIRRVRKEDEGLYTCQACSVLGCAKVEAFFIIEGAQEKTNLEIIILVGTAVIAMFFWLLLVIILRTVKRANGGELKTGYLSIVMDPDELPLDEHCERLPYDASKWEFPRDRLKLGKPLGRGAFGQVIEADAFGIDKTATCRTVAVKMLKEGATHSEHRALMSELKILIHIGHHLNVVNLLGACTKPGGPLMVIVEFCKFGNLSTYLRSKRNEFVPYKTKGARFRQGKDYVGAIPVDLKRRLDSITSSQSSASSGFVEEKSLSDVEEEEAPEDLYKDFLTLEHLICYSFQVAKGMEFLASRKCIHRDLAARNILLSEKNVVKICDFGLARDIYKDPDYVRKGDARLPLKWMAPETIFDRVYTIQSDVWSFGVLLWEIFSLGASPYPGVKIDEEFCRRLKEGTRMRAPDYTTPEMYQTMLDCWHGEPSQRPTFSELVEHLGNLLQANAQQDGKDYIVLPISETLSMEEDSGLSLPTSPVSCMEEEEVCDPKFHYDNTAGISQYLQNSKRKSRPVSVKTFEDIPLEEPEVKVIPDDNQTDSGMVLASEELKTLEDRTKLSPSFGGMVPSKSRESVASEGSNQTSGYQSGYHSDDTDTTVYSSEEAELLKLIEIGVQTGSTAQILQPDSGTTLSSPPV

Molecule | Stability in mouse plasma (in words) [5] | Neutrophil adhesion inhibition (Human neutrophils [6]) [%] | IC50 (FGF-2) [µM] | inhibition at 0.3 µM (Human neutrophils [7]) [%] | IC50 (FGF-1) [µM] | IC50 (VEGF-A) [µM] | IC50 (VEGFR-2) [µM] | further results
bevacizumab: comparator in ARPE-19 and HREC permeability experiments [reference compound] | – | – | – | – | – | – | – | % permeability HREC ([1]; No 9: 25 mM D-Gluc + 0.2 mg/mL): 127.1 ± 26.2%; % permeability HREC ([1]; No 17: 25 mM D-Gluc + 0.2 mg/mL + VEGF, TNF-α, IL-β (diabetic milieu)): 129.0 ± 35.3%; % permeability ARPE19 (ARPE-19 cells [2]; No 9: 25 mM D-Gluc + 0.2 mg/mL): 109.5 ± 22.9%; % permeability ARPE19 (ARPE-19 cells [2]; No 17: 25 mM D-Gluc + 0.2 mg/mL + VEGF, TNF-α, (diabetic milieu)): 120.7 ± 30.1%; ROS (ARPE-19 cells [3]; 25 mM D-Gluc): 110 ± 54%; IL-1β R.Q. mRNA (ARPE-19 cells [3]; 25 mM D-Gluc): 1.46 ± 0.72 R.Q.; IL-6 R.Q. mRNA (ARPE-19 cells [3]; 25 mM D-Gluc): 0.64 ± 0.34 R.Q.; IL-18 R.Q. mRNA (ARPE-19 cells [3]; 25 mM D-Gluc): 0.09 ± 0.01 R.Q.; TNFα R.Q. mRNA (ARPE-19 cells [3]; 25 mM D-Gluc): 0.46 ± 0.63 R.Q.; VEGF R.Q. mRNA (ARPE-19 cells [3]; 25 mM D-Gluc): 1.68 ± 0.83 R.Q.; ROS (ARPE-19 cells [3]; [8]): 111 ± 50%; IL-1β R.Q. mRNA (ARPE-19 cells [3]; [8]): 31.22 ± 12.65 R.Q.; IL-6 R.Q. mRNA (ARPE-19 cells [3]; [8]): 32.35 ± 13.48 R.Q.; IL-18 R.Q. mRNA (ARPE-19 cells [3]; [8]): 0.53 ± 0.04 R.Q.; TNFα R.Q. mRNA (ARPE-19 cells [3]; [8]): 1.37 ± 0.27 R.Q.; VEGF R.Q. mRNA (ARPE-19 cells [3]; [8]): 3.88 ± 0.68 R.Q.
CC(C)(C)C(=O)OCOC(=O)c1cc(O)cc(CS(=O)(=O)Cc2cc(O)cc(C(=O)O)c2O)c1O [IVc-059a-pivm1, 2,5-Dihydroxy-3-[[2,5-dihydroxy-3-(2,2-dimethylpropanoyloxymethoxycarbonyl)phenyl]methyl-sulfonylmethyl]benzoic acid] | hydrolyzed rapidly | – | – | – | – | – | – | half-life [4]: > 180 min; half-life ([5]; read-out: T1/2 (mouse plasma)): 6.7 min
CC(OC(=O)c1cc(O)cc(CS(=O)(=O)Cc2cc(O)cc(C(=O)O)c2O)c1O)OC(=O)C(C)(C)C (centres unmarked) [IVc-059a-pive1, 3-[[3-[1-(2,2-Dimethylpropanoyloxy)ethoxycarbonyl]-2,5-dihydroxy-phenyl]methylsulfonyl-methyl]-2,5-dihydroxy-benzoic acid] | Hydrolyzed Rapidly | – | – | – | – | – | – | –
O=C(O)c1cc(O)cc(CS(=O)(=O)Cc2cc(O)cc(C(=O)OCCN3CCOCC3)c2O)c1O [IVc-059a-mpe1, 2,5-Dihydroxy-3-[[2,5-hydroxy-3-(2-morpholinoethoxycarbonyl)phenyl]methylsulfonyl-methyl]benzoic acid] | stable up to 60 min | – | – | – | – | – | – | –
O=C(O)c1cc(O)c(C(=O)NC(Cc2ccc(O)c(O)c2)C(=O)O)cc1O (centres unmarked) [Ia-035a-3, 4-(1-Carboxy-2-(3,4-dihydroxyphenyl)ethylaminocarbonyl)-2,5-dihydroxybenzoic acid] | – | 22 | 207 | 79.6 | 34 | 198 | 10 | IC50 (Human neutrophils [7]): 0.66 µM
O=C(O)c1ccc(C(=O)O)c(NC(=O)c2cc(O)c(C(=O)O)cc2O)c1 [Ia-012a, 2-(4-carboxy-2,5-dihydroxybenzamido)terephthalic acid] | – | 28.5 | 36 | 59.5 | 38 | 30 | ≥ 100 | IC50 (Human neutrophils [7]): 1.85 µM
O=C(O)c1cc(O)c(C(=O)Nc2cccc(C(=O)O)c2C(=O)O)cc1O [Ia-011a, 3-(4-carboxy-2,5-dihydroxybenzamido)phthalic acid] | – | 42.32 | 110 | 57.7 | 35 | ≥ 200 | ≥ 100 | –

Reference: US20230150951A1, “2,5- OR 2,6-DISUBSTITUTED HYDROQUINONE DERIVATIVES WITH AT LEAST ONE CARBOXY, SULFO OR AMIDO GROUP USEFUL AS MEDICAMENTS” (OM PHARMA SA, priority 2020, published 2023)
